The source of these data is article PMC6222802 (Molecules : A Journal of Synthetic Chemistry and Natural …, 2018).

Some results are limits rather than exact numbers.

One data set deals with H22 tumor bearing mice. Put plainly: Antitumor activity and toxicity in vivo in H22 tumor bearing mice. The arrangement: species or system KM mice. Conditions: for tumor inhibition rate: 50 mg/kg, administered for 6 days, H22 tumor bearing mice; for toxicity, organ-to-body weight ratios (organ indexes: thymus, brain, lung, heart, liver, kidney, spleen) compared with NS: 50 and 30 mg/kg (CP 50 mg/kg); for body weight change compared with NS group: even at the dose of 50 mg/kg.

In data set [1] the test system is S180 cells. Briefly: cells. Conditions: S-180, 48 h, read-out: IC50, S180.
Data set [2] relates to H22 cells. Briefly: cells. Conditions: Mus musculus, H22, 48 h, read-out: IC50, H22.
Another data set relates to K562 cells. Put plainly: cells. The conditions noted are these: Homo sapiens, K562, 48 h, read-out: IC50, K562.
A further data set deals with MCF-7 cells. Put plainly: cells. Conditions: Homo sapiens, MCF7, 48 h, read-out: IC50, MCF-7.
The subject of the next data set is LoVo cells. Put plainly: cells. Conditions: Homo sapiens, 48 h, read-out: IC50, LoVo.
In another data set the test system is L929 cells. Put plainly: cells. The conditions noted are these: Mus musculus, L929, 48 h, read-out: IC50, L929.
Data set [3] has as its system H22 cells. Put plainly: Cell cycle analysis by flow cytometry (PI). The class given is cell-based. The conditions noted are these: 3 μM, 48 h; for Distribution (%) G2/M: control 12.26%; for percentage of G1-phase cells: control 15.32%; for percentage of S-phase cells: control 72.42%. The method, then:
To determine whether the suppression of cell growth by the compounds was caused by a cell-cycle effect, we used a cell cycle analysis kit to detect the DNA content of cell nuclei.
H22 cells were treated with 7a–7e at 3 μM at 37 °C for 48 h and then cells were harvested, centrifuged, resuspended and fixed in 70% EtOH overnight at 4 °C. The fixed cells were digested by RNase A (0.25 mg·mL^−1) at 37 °C for 30 min, and stained with PI (50 μg·mL^−1) in the dark at room temperature for 30 min. The distribution of the cell cycle was analyzed by Flow Cytometer.

The subject of data set [4] is S180 cells.
Data set [5] deals with H22 cells.

In general, IC50 refers to the midpoint of a concentration-inhibition curve.

Turning to `O=P1(N(CCCl)CCCl)NCCCO1` (stereo not shown) [CP, cyclophosphamide, reference compound], in the data set with H22 tumor bearing mice, the tumor inhibition rate amounted to 72.22%; the “toxicity, organ-to-body weight ratios (organ indexes: thymus, brain, lung, heart, liver, kidney, spleen) compared with NS” value is “significantly increase the liver and spleen indexes”.
For the molecule `O=C1CCC[C@@H]2[C@H]3CCCN4CCC[C@H](CN12)[C@@H]34` [Compound 1, Sophoridine, reference compound], the half-inhibitory concentration (IC50) in the data set on S180 cells [1], in the data set on H22 cells [2], with K562 cells, in the data set on MCF-7 cells, in the data set on LoVo cells and with L929 cells was more than 100 µM throughout.
In the case of `COC(=O)CCC[C@@H]1[C@H]2CCCN3CCC[C@H](CN1P(=O)(Oc1ccc(C)cc1)N(CCCl)CCCl)[C@@H]23` (stereo partly shown) [Compound 7a], the tumor inhibition rate in the data set with H22 tumor bearing mice is 46.95%. For the same molecule, in the data set on H22 tumor bearing mice, the “toxicity, organ-to-body weight ratios (organ indexes: thymus, brain, lung, heart, liver, kidney, spleen) compared with NS” value is “induced low toxicity”. Moreover, the “body weight change compared with NS group” value (shortened to “body weight change”) in the data set on H22 tumor bearing mice is “did not significantly cause body weight change”. For the same molecule, the “Distribution (%) G2/M” value in the data set on H22 cells [3] is listed as 15.15%. Besides, the “percentage of G1-phase cells” value in the data set on H22 cells [3] was found to be 32.02%. Besides, in the data set with H22 cells [3], the “percentage of S-phase cells” value came to 52.83%. Further, the “SI * selectivity index (SI) of S180 against L929” value (from here on “SI * selectivity index (SI)”) in the data set on S180 cells [4] turned out to be 62.51. In the data set on H22 cells [5], the “SI ** selectivity index (SI) of H22 against L929” value (from here on “SI ** selectivity index (SI)”) worked out at 83.10. The IC50 in the data set with S180 cells [1] worked out at 2.89 ± 0.23 µM; in the data set on H22 cells [2] it was 2.17 ± 0.13 µM; in the data set with K562 cells, 27.1 ± 2.51 µM; in the data set with MCF-7 cells, 61.2 ± 2.21 µM; in the data set with LoVo cells, 62.5 ± 2.32 µM; with L929 cells, 181 ± 4.56 µM.
Regarding `COC(=O)CCC[C@@H]1[C@H]2CCCN3CCC[C@H](CN1P(=O)(Oc1ccc(OC)cc1)N(CCCl)CCCl)[C@@H]23` (stereo partly shown) [Compound 7b], in the data set with H22 cells [3], the “Distribution (%) G2/M” value was 12.70%. Besides, the “percentage of G1-phase cells” value in the data set with H22 cells [3] amounted to 15.44%. Also, in the data set on H22 cells [3], the “percentage of S-phase cells” value is on record as 71.86%. For the same molecule, the “SI * selectivity index (SI)” value in the data set on S180 cells [4] was 29.80. The “SI ** selectivity index (SI)” value in the data set with H22 cells [5] came out at 39.36. Further, the IC50 worked out at 3.5 ± 0.35 µM in the data set with S180 cells [1]; 2.65 ± 0.25 µM in the data set on H22 cells [2]; 54.5 ± 2.32 µM in the data set on K562 cells; 38.9 ± 2.56 µM in the data set on MCF-7 cells; 46.2 ± 2.32 µM with LoVo cells; 104 ± 3.2 µM with L929 cells.
Turning to `COC(=O)CCC[C@@H]1[C@H]2CCCN3CCC[C@H](CN1P(=O)(Oc1ccc(Cl)cc1)N(CCCl)CCCl)[C@@H]23` (stereo partly shown) [Compound 7c], in the data set on H22 tumor bearing mice, the tumor inhibition rate amounted to 54.83%; the “toxicity, organ-to-body weight ratios (organ indexes: thymus, brain, lung, heart, liver, kidney, spleen) compared with NS” value is “induced low toxicity”; the “body weight change” value is recorded as “did not significantly cause body weight change”. For the same molecule, in the data set with H22 cells [3], the “Distribution (%) G2/M” value was 6.30%, the “percentage of G1-phase cells” value is reported as 51.22% and the “percentage of S-phase cells” value is 42.48%. Besides, in the data set with S180 cells [4], the “SI * selectivity index (SI)” value stood at 80.40; the “kinetics of growth inhibition, S180” value is “concentration-dependent and time-dependent”. For the same molecule, in the data set with H22 cells [5], the “SI ** selectivity index (SI)” value is 160.80; the “kinetics of growth inhibition, H22” value was “concentration-dependent and time-dependent”. Also, the IC50 in the data set with S180 cells [1] turned out to be 2.02 ± 0.17 µM. Further, the half-inhibitory concentration (IC50) in the data set on H22 cells [2] came to 1.01 ± 0.08 µM. For the same molecule, the IC50 in the data set on K562 cells stood at 18.1 ± 1.34 µM. Moreover, in the data set with MCF-7 cells, the IC50 was found to be 31.9 ± 2.45 µM. The half-inhibitory concentration (IC50) in the data set on LoVo cells came out at 33.4 ± 2.45 µM. Also, the concentration for half-maximal inhibition (IC50) in the data set on L929 cells amounted to 162 ± 4.12 µM.
Regarding `COC(=O)CCC[C@@H]1[C@H]2CCCN3CCC[C@H](CN1P(=O)(Oc1ccc([N+](=O)[O-])cc1)N(CCCl)CCCl)[C@@H]23` (stereo partly shown) [Compound 7d], the “Distribution (%) G2/M” value in the data set with H22 cells [3] was 15.66%. Further, the “percentage of G1-phase cells” value in the data set on H22 cells [3] was 16.10%. For the same molecule, the “percentage of S-phase cells” value in the data set on H22 cells [3] stood at 68.24%. Further, in the data set with S180 cells [4], the “SI * selectivity index (SI)” value was 52.40. Besides, the “kinetics of growth inhibition, S180” value in the data set with S180 cells [4] was “concentration-dependent and time-dependent”. The “SI ** selectivity index (SI)” value in the data set on H22 cells [5] is recorded as 58.51. The “kinetics of growth inhibition, H22” value in the data set with H22 cells [5] was “concentration-dependent and time-dependent”. The 50% inhibitory concentration (IC50) turned out to be 2.01 ± 0.14 µM with S180 cells [1]; 1.8 ± 0.12 µM in the data set with H22 cells [2]; 20.3 ± 2.05 µM with K562 cells; 34.6 ± 2.21 µM with MCF-7 cells; 32.2 ± 2.21 µM with LoVo cells; 105 ± 3.1 µM in the data set on L929 cells.
As to `COC(=O)CCC[C@@H]1[C@H]2CCCN3CCC[C@H](CN1P(=O)(Oc1ccccc1)N(CCCl)CCCl)[C@@H]23` (stereo partly shown) [Compound 7e], the tumor inhibition rate with H22 tumor bearing mice is 47.78%. For the same molecule, the “toxicity, organ-to-body weight ratios (organ indexes: thymus, brain, lung, heart, liver, kidney, spleen) compared with NS” value with H22 tumor bearing mice was “induced low toxicity”. Further, the “body weight change” value in the data set with H22 tumor bearing mice is on record as “did not significantly cause body weight change”. Further, in the data set on H22 cells [3], the “Distribution (%) G2/M” value turned out to be 11.75%. Moreover, the “percentage of G1-phase cells” value in the data set with H22 cells [3] is 17.21%. In addition, the “percentage of S-phase cells” value with H22 cells [3] worked out at 71.04%. Moreover, the “SI * selectivity index (SI)” value in the data set on S180 cells [4] came out at 37.96. For the same molecule, the “SI ** selectivity index (SI)” value in the data set with H22 cells [5] amounted to 74.89. Besides, the IC50 in the data set with S180 cells [1] turned out to be 3.65 ± 0.25 µM; in the data set on H22 cells [2], 1.85 ± 0.16 µM; with K562 cells, 32.7 ± 2.56 µM; with MCF-7 cells it was 86.6 ± 2.67 µM; in the data set with LoVo cells, 70 ± 2.78 µM; in the data set with L929 cells, 139 ± 3.35 µM.
Consider `COc1cccc2c1C(=O)c1c(O)c3c(c(O)c1C2=O)C[C@@](O)(C(=O)CO)C[C@@H]3O[C@H]1C[C@H](N)[C@H](O)[C@H](C)O1` [Dox, Doxorubicin, reference compound], for which the half-maximal inhibitory concentration (IC50) in the data set with S180 cells [1] came to 29.2 ± 2.07 µM; in the data set with H22 cells [2], 36.5 ± 2.56 µM; with K562 cells it was 17.2 ± 1.78 µM; in the data set on MCF-7 cells, 0.44 ± 0.08 µM; with LoVo cells it was 0.15 ± 0.02 µM; in the data set on L929 cells, 0.23 ± 0.08 µM.
